Reference: PubChem BioAssay (NCI)
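The compound was tested at five concentrations on cells cultured in 96-well plates, with a 48-hour exposure period. GI50 = concentration required for 50% inhibition of growth. TGI denotes the concentration required for complete inhibition of growth.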

Legend:
Test in all cases: DTP human tumour cell line panel, 48 h
A549 NSCLC = tested on: A549 NSCLC
ACHN renal = tested on: ACHN renal
HOP-62 NSCLC = tested on: HOP-62 NSCLC
MDA-MB-231 breast = tested on: MDA-MB-231 breast
SF-268 CNS = tested on: SF-268 CNS
SK-MEL-2 melanoma = tested on: SK-MEL-2 melanoma
SN12C renal = tested on: SN12C renal
SNB-19 CNS = tested on: SNB-19 CNS
SR leukemia = tested on: SR leukemia
SW-620 colon = tested on: SW-620 colon

COc1cccc2c1C(=N)c1c(O)c3c(c(O)c1C2=O)C[C@@](O)(C(C)=O)C[C@@H]3O[C@H]1C[C@H](N)[C@H](O)[C@H](C)O1
GI50 (A549 NSCLC): 0.155 µM | TGI (A549 NSCLC): 1.58 µM | GI50 (ACHN renal): 0.419 µM | TGI (ACHN renal): 3.1 µM | GI50 (HOP-62 NSCLC): 0.152 µM | TGI (HOP-62 NSCLC): 1.37 µM | GI50 (MDA-MB-231 breast): 1.26 µM | TGI (MDA-MB-231 breast): 7.74 µM | GI50 (SF-268 CNS): 0.339 µM | TGI (SF-268 CNS): 3.62 µM | GI50 (SK-MEL-2 melanoma): 2.28 µM | TGI (SK-MEL-2 melanoma): 4.95 µM | GI50 (SN12C renal): 0.224 µM | TGI (SN12C renal): 1.21 µM | GI50 (SNB-19 CNS): 0.232 µM | TGI (SNB-19 CNS): 2.92 µM | GI50 (SR leukemia): 0.0217 µM | TGI (SR leukemia): 6.08 µM | TGI (SW-620 colon): 3.65 µM

C=C(C)[C@@H]1CC[C@]2(COCCCN)CC[C@]3(C)[C@H](CC[C@@H]4[C@@](C)(CCCNCCCN)[C@H](C(=C)C)CC[C@]43C)[C@@H]12
GI50 (A549 NSCLC): 1.89 µM | TGI (A549 NSCLC): 3.63 µM | GI50 (ACHN renal): 1.75 µM | TGI (ACHN renal): 3.13 µM | GI50 (HOP-62 NSCLC): 1.66 µM | TGI (HOP-62 NSCLC): 3.25 µM | GI50 (MDA-MB-231 breast): 1.8 µM | TGI (MDA-MB-231 breast): 3.29 µM | GI50 (SF-268 CNS): 1.84 µM | TGI (SF-268 CNS): 3.72 µM | GI50 (SK-MEL-2 melanoma): 1.89 µM | TGI (SK-MEL-2 melanoma): 3.71 µM | GI50 (SN12C renal): 1.58 µM | TGI (SN12C renal): 2.96 µM | GI50 (SNB-19 CNS): 1.84 µM | TGI (SNB-19 CNS): 3.56 µM | GI50 (SR leukemia): 1.32 µM | TGI (SR leukemia): 3.59 µM | GI50 (SW-620 colon): 1.84 µM | TGI (SW-620 colon): 3.79 µM

CC(C)(C)c1cc([N+](=O)[O-])cc([N+](=O)[O-])c1O
TGI (A549 NSCLC): > 10 µM | TGI (ACHN renal): > 10 µM | TGI (HOP-62 NSCLC): > 10 µM | TGI (MDA-MB-231 breast): > 10 µM | TGI (SF-268 CNS): > 10 µM | TGI (SK-MEL-2 melanoma): > 10 µM | TGI (SN12C renal): > 10 µM | TGI (SNB-19 CNS): > 10 µM | TGI (SR leukemia): > 10 µM | TGI (SW-620 colon): > 10 µM

CCCOC(=O)N[C@H]1CCc2c(Cl)c(OC)c(OC)c(OC)c2-c2ccc(SC)c(=O)cc21
GI50 (A549 NSCLC): < 0.0153 µM | TGI (A549 NSCLC): > 100 µM | GI50 (ACHN renal): < 0.01 µM | TGI (ACHN renal): 23.6 µM | GI50 (HOP-62 NSCLC): 0.0101 µM | TGI (HOP-62 NSCLC): 50.9 µM | GI50 (MDA-MB-231 breast): < 0.01 µM | TGI (MDA-MB-231 breast): 4.71 µM | GI50 (SF-268 CNS): < 0.0117 µM | TGI (SF-268 CNS): 17.4 µM | GI50 (SK-MEL-2 melanoma): 1.88 µM | TGI (SK-MEL-2 melanoma): 29.9 µM | GI50 (SN12C renal): < 0.0123 µM | TGI (SN12C renal): 13.6 µM | GI50 (SNB-19 CNS): < 0.01 µM | TGI (SNB-19 CNS): 27.4 µM | GI50 (SR leukemia): < 0.01 µM | TGI (SR leukemia): 19.2 µM | GI50 (SW-620 colon): < 0.01 µM | TGI (SW-620 colon): > 52.5 µM

CN(c1ccc(NC(=O)Nc2c(Cl)cccc2Cl)cc1)c1ccnc(Nc2cccc(CS(C)(=O)=O)c2)n1
GI50 (A549 NSCLC): 1.65 µM | TGI (A549 NSCLC): 7.66 µM | GI50 (ACHN renal): 3.48 µM | TGI (ACHN renal): 8.79 µM | GI50 (HOP-62 NSCLC): 3.71 µM | TGI (HOP-62 NSCLC): 11.9 µM | GI50 (MDA-MB-231 breast): 4.49 µM | TGI (MDA-MB-231 breast): 16.9 µM | GI50 (SF-268 CNS): 2.19 µM | TGI (SF-268 CNS): 10.7 µM | GI50 (SK-MEL-2 melanoma): 5 µM | TGI (SK-MEL-2 melanoma): 11.9 µM | GI50 (SN12C renal): 3.37 µM | TGI (SN12C renal): 10.6 µM | GI50 (SNB-19 CNS): 4.5 µM | TGI (SNB-19 CNS): > 25 µM | GI50 (SR leukemia): 0.303 µM | TGI (SR leukemia): > 25 µM | GI50 (SW-620 colon): 1.62 µM | TGI (SW-620 colon): > 16.8 µM
